We go through three compounds from patent EP1952812A1, “Drug for treating thalessemia, falciform anemia and all other forms of anemia treatable therewith” (Universita' Degli Studi di Ferrara, priority 2007, dated 2008).

Molecules are shown by their SMILES.

One data set concerns gamma-globin mRNA. Kind of data set: gamma-globin mRNA production by quantitative RT-PCR in human erythroid precursors isolated from peripheral blood (two-step Fibach culture). The class given is cell-based. The settings on record: for gamma-globulin mRNA: ratio of mRNA content in UVA-treated cells to that of UVA-untreated cells, cells treated for 6 days. An excerpt: To verify if treatment with 8-meethoxypsoralen and trimethylangelicin photoactivated with UVA light was able to stimulate mRNA production for gamma-globin in human erythroid precursors isolated from peripheral blood, the method used was that described by Fibach et al. (Fibach E. Hemoglobin, 22: 445-458, 1998; Fibach E, Burke KP, Schechter AN, Noguchi CT & Rodgers GP. Blood, 81: 1630-1635, 1993). This method comprises two steps: the cells isolated from peripheral blood of a healthy subject or affected with a hemopoietic pathology, such as falciform anemia or beta-thalessemia, are seeded in culture medium to which 10% of conditioned medium deriving from the bladder carcinoma cell line 5637 is added. The second step consists of cultivating the isolated cells in a suitable culture medium to which erythropoietin hormone, 30% of bovine fetal serum, 2-mercapto-ethanol, albumin, glutamine and desametasone are added to enable proliferation and maturing of erythroid stem cells. In this step the cells can be treated with potential HbF inducers.
The gamma-globin mRNA production level is much higher than that encountered using hydroxyurea as inducer (Fibach E. Hemoglobin, 22: 445-458, 1998; Fibach E, Burke KP, Schechter AN, Noguchi CT & Rodgers GP. Blood, 81: 1630-1635, 1993).

In the next data set the test system is K562 human cell line. Kind of data set: Erythroid differentiation of K562 cells (benzidine positivity), with or without UVA photoactivation. It is filed as cell-based. The settings on record: percentage of K562 cells positive to benzidine. As to the method:
The evaluation of the biological activity of the treatment with psoralens photoactivated with UVA light was conducted by examining the capacity of these molecules to modulate the gamma-globin gene expression in the K562 human cell line, which is able to differentiate in the erythroid sense by expressing the gamma-globin genes if subjected to treatment with biological response modifiers suitable for the purpose (Lampronti I., Bianchi N Borgatti M., Fibach E.,Prus E.,Gambari R. Eur J Haematology 71 189-195 2003, Bianchi N, Ongaro F, Chiarabelli C, Gualandi L, Mischiati C, Bergamini P, Gambari R. Biochem Pharmacol, 60:31-40, 2000;Bianchi N, Osti F, Rutigliano C, Ginanni Corradini F, Borsetti E, Tomassetti M, Mischiati C, Feriotto G and Gambari R, British Journal of Haematology, 104:258-263, 1999).
The differentiation level was evaluated by analyzing the cell positivity to benzidine (Lampronti I., Bianchi N., Borgatti M., Fibach E., Prus E., Gambari R. Eur J Haematology 71 189-195 2003,).
The gamma-globin coding gene expression was evaluated by quantitative RT-PCR (reverse transcriptase PCR) (Lampronti I., Bianchi N Borgatti M., Fibach E.,Prus E.,Gambari R. Eur J Haematology. 71 189-195 2003) Some of the data obtained are reported in Table 1. As can be easily noted, treatment with different furocoumarin derivatives photoactivated with UVA light are able to induce an increase in the percentage of cells positive to benzidine (60-85% of the treated cells, compared with 5-17% of the K562 control cells treated with furocoumarin derivatives in the absence of UVA light). […] In the control not treated with furocoumarin derivatives, erythrolid differentiation is low (4-6%) both in the absence and in the presence of UVA light.

[1] abbreviates: Homo sapiens, light or radiation study, 144 h, read-out: gamma-globin mRNA.

Regarding `COc1c2occc2cc2ccc(=O)oc12` [Compound 8-MOP, 8-methoxypsoralen, reference compound], in the data set on gamma-globin mRNA (setting [1]), the fold induction at 0.25 µM stood at 2.76 and the fold induction at 1 µM is 18.5. In addition, in the data set with K562 human cell line (concentration 0.25 µM), the “Erythroid differentiation with UVA (%)” value was determined as 65% and the “Erythroid differentiation without UVA (%)” value came out at 17%.
`O=c1ccc2ccc3occc3c2o1` [angelicin]: in the data set on K562 human cell line (concentration 0.50 µM), the “Erythroid differentiation with UVA (%)” value amounted to 60% and the “Erythroid differentiation without UVA (%)” value was 6%.
Regarding `Cc1cc(=O)oc2c1cc(C)c1occ(C)c12` [trimethylangelicin], the “gamma-globulin mRNA” value in the data set with gamma-globin mRNA (concentration 0.10 µM) is on record as 9.56. Moreover, the “gamma-globulin mRNA” value in the data set with gamma-globin mRNA (concentration 0.50 µM) was 12.86. Also, in the data set on K562 human cell line (concentration 0.50 µM), the “Erythroid differentiation with UVA (%)” value was 85% and the “Erythroid differentiation without UVA (%)” value was 5%.
